{"source": "ChEMBL document CHEMBL1139856", "about": "“Smallest peptoids with antiproliferative activity on human neoplastic cells” (J Med Chem, 2007)", "key": {"HL-60": {"system": "HL-60", "test": "Cytotoxicity against human HL60 cells at <100 uM after 72 hrs", "assay_type": "cell-based", "conditions": "hl-60, 72 h; call rule not given here"}, "Jurkat": {"system": "Jurkat", "test": "Cytotoxicity against human Jurkat T cells at <100 uM after 72 hrs", "assay_type": "cell-based"}, "[1]": {"test": "Cytotoxicity against human HL60 cells after 72 hrs", "assay_type": "cell-based, HL-60"}, "[2]": {"test": "Cytotoxicity against human A549 cells after 72 hrs", "assay_type": "cell-based"}, "[3]": {"test": "Cytotoxicity against human Jurkat T cells after 72 hrs", "assay_type": "cell-based"}, "HeLa": {"system": "HeLa", "test": "Antimitotic activity against human HeLa cells after 18 hrs", "assay_type": "functional, cell-based"}, "[4]": {"test": "Cytotoxicity against human MDA-MB-231 cells after 72 hrs", "assay_type": "cell-based"}, "HT-29": {"system": "HT-29", "test": "Cytotoxicity against human HT29 cells after 72 hrs", "assay_type": "cell-based", "conditions": "ht-29, 72 h"}}, "data": [{"smiles": "NC(=O)CN(CC1CCCO1)C(=O)CNCCC(c1ccccc1)c1ccccc1", "note": "(stereo unspecified)", "values": [{"measurement": "Activity", "setting": "HL-60", "result": "Not Active"}, {"measurement": "Activity", "setting": "Jurkat", "result": "Not Active"}]}, {"smiles": "NC(=O)CN(CCC(c1ccccc1)c1ccccc1)C(=O)CNCC1CCCO1", "note": "(stereo unspecified)", "values": [{"measurement": "Activity", "setting": "HL-60", "result": "Not Active"}, {"measurement": "Activity", "setting": "Jurkat", "result": "Not Active"}]}, {"smiles": "COc1ccc(CCN2CC(=O)N(CCC(c3ccccc3)c3ccccc3)CC2=O)cc1", "values": [{"measurement": "Activity", "setting": "HL-60", "result": "Not Active"}, {"measurement": "Activity", "setting": "Jurkat", "result": "Not Active"}]}, {"smiles": "O=C1CN(CC2CCCO2)C(=O)CN1CCC(c1ccccc1)c1ccccc1", "note": "(stereo unspecified)", "values": [{"measurement": "Activity", "setting": "HL-60", "result": "Not Active"}, {"measurement": "Activity", "setting": "Jurkat", "result": "Not Active"}]}, {"smiles": "COc1ccc(CCN(CC(=O)NCCC(c2ccccc2)c2ccccc2)C(=O)CNCCC(c2ccccc2)c2ccccc2)cc1", "values": [{"measurement": "GI50 at 72 h", "setting": "[1]", "result": 2.94, "unit": "µM"}, {"measurement": "GI50 at 72 h", "setting": "[2]", "result": 1.02, "unit": "µM"}, {"measurement": "GI50 at 72 h", "setting": "[3]", "result": 3.75, "unit": "µM"}, {"measurement": "IC50", "setting": "HeLa", "result": 0.025, "unit": "µM"}, {"measurement": "GI50 at 72 h", "setting": "[4]", "result": 1.02, "unit": "µM"}, {"measurement": "GI", "setting": "HT-29", "result": 1.04, "unit": "µM"}]}, {"smiles": "O=C(CN(CCC(c1ccccc1)c1ccccc1)C(=O)CNCC1CCCO1)NCCC(c1ccccc1)c1ccccc1", "note": "(stereo unspecified)", "values": [{"measurement": "GI50 at 72 h", "setting": "[1]", "result": 23, "unit": "µM"}, {"measurement": "GI50 at 72 h", "setting": "[2]", "result": 1.06, "unit": "µM"}, {"measurement": "GI50 at 72 h", "setting": "[3]", "result": 5.83, "unit": "µM"}, {"measurement": "GI50 at 72 h", "setting": "[4]", "result": 1.06, "unit": "µM"}, {"measurement": "GI", "setting": "HT-29", "result": 0.94, "unit": "µM"}]}, {"smiles": "COc1ccc(CCN(CC(=O)N(CCC(c2ccccc2)c2ccccc2)CC(N)=O)C(=O)CNCCC(c2ccccc2)c2ccccc2)cc1", "values": [{"measurement": "GI50 at 72 h", "setting": "[1]", "result": 21.8, "unit": "µM"}, {"measurement": "GI50 at 72 h", "setting": "[2]", "result": 1.41, "unit": "µM"}, {"measurement": "GI50 at 72 h", "setting": "[3]", "result": 6.68, "unit": "µM"}, {"measurement": "GI50 at 72 h", "setting": "[4]", "result": 1.32, "unit": "µM"}, {"measurement": "GI", "setting": "HT-29", "result": 1.41, "unit": "µM"}]}, {"smiles": "O=C(CNCCC(c1ccccc1)c1ccccc1)NCCC(c1ccccc1)c1ccccc1", "values": [{"measurement": "GI50 at 72 h", "setting": "[1]", "result": 12.6, "unit": "µM"}, {"measurement": "GI50 at 72 h", "setting": "[2]", "result": 3.46, "unit": "µM"}, {"measurement": "GI50 at 72 h", "setting": "[3]", "result": 10.2, "unit": "µM"}, {"measurement": "IC50", "setting": "HeLa", "result": 0.035, "unit": "µM"}, {"measurement": "GI50 at 72 h", "setting": "[4]", "result": 3.46, "unit": "µM"}, {"measurement": "GI", "setting": "HT-29", "result": 3.03, "unit": "µM"}]}, {"smiles": "COc1ccc(CCN(CC(N)=O)C(=O)CNCCC(c2ccccc2)c2ccccc2)cc1", "values": [{"measurement": "GI50 at 72 h", "setting": "[1]", "result": 31.1, "unit": "µM"}, {"measurement": "GI50 at 72 h", "setting": "[3]", "result": 33.9, "unit": "µM"}, {"measurement": "GI50 at 72 h", "setting": "[4]", "result": 19.1, "unit": "µM"}, {"measurement": "GI", "setting": "HT-29", "result": 9.14, "unit": "µM"}]}, {"smiles": "NC(=O)CN(CCC(c1ccccc1)c1ccccc1)C(=O)CNCCC(c1ccccc1)c1ccccc1", "values": [{"measurement": "GI50 at 72 h", "setting": "[1]", "result": 13.2, "unit": "µM"}, {"measurement": "GI50 at 72 h", "setting": "[2]", "result": 3.08, "unit": "µM"}, {"measurement": "GI50 at 72 h", "setting": "[3]", "result": 10.5, "unit": "µM"}, {"measurement": "IC50", "setting": "HeLa", "result": 0.154, "unit": "µM"}, {"measurement": "GI50 at 72 h", "setting": "[4]", "result": 3.08, "unit": "µM"}, {"measurement": "GI", "setting": "HT-29", "result": 1.64, "unit": "µM"}]}, {"smiles": "COc1ccc(CCNCC(=O)N(CCC(c2ccccc2)c2ccccc2)CC(N)=O)cc1", "values": [{"measurement": "GI50 at 72 h", "setting": "[1]", "result": 29.1, "unit": "µM"}, {"measurement": "GI50 at 72 h", "setting": "[2]", "result": 9.36, "unit": "µM"}, {"measurement": "GI50 at 72 h", "setting": "[3]", "result": 27.3, "unit": "µM"}, {"measurement": "GI50 at 72 h", "setting": "[4]", "result": 9.36, "unit": "µM"}, {"measurement": "GI", "setting": "HT-29", "result": 9.14, "unit": "µM"}]}, {"smiles": "COc1ccc(CCNCC(=O)NCCC(c2ccccc2)c2ccccc2)cc1", "values": [{"measurement": "GI50 at 72 h", "setting": "[1]", "result": 10.6, "unit": "µM"}, {"measurement": "GI50 at 72 h", "setting": "[2]", "result": 3.73, "unit": "µM"}, {"measurement": "GI50 at 72 h", "setting": "[3]", "result": 18, "unit": "µM"}, {"measurement": "IC50", "setting": "HeLa", "result": 0.994, "unit": "µM"}, {"measurement": "GI50 at 72 h", "setting": "[4]", "result": 2.73, "unit": "µM"}, {"measurement": "GI", "setting": "HT-29", "result": 1.89, "unit": "µM"}]}, {"smiles": "NC(=O)CN(CCC(c1ccccc1)c1ccccc1)C(=O)CN(CCC(c1ccccc1)c1ccccc1)C(=O)CNCC1CCCO1", "note": "(stereo unspecified) [TRIMER I]", "values": [{"measurement": "GI50 at 72 h", "setting": "[1]", "result": 3.55, "unit": "µM"}, {"measurement": "GI50 at 72 h", "setting": "[2]", "result": 2.57, "unit": "µM"}, {"measurement": "GI50 at 72 h", "setting": "[3]", "result": 21.3, "unit": "µM"}, {"measurement": "GI50 at 72 h", "setting": "[4]", "result": 2.72, "unit": "µM"}, {"measurement": "GI", "setting": "HT-29", "result": 2.27, "unit": "µM"}]}]}
